Article PMC4770715, “LIM kinase inhibitors disrupt mitotic microtubule organization and impair tumor cell proliferation” (Oncotarget, 2015)

Columns and labels:
Test in all cases: biochemical
Design in all cases: KINOMEscan active-site competition binding, percent of control (100 = no competition)
Settings in all cases: competition binding, percent control
PIK4CB = molecular target: T1, PIK4CB (Homo sapiens, UniProt Q9UBF8)
T1 construct: gene PI4KB

OSR1 = molecular target: T2, OSR1 (Homo sapiens, UniProt O95747)
T2 construct: gene OXSR1

DMPK2 = molecular target: T3, DMPK2 (Homo sapiens, UniProt Q6DT37)
T3 construct: gene CDC42BPG

MKNK2 = MKNK2 (Homo sapiens, UniProt Q9HBH9)
FLT3(D835Y) = FLT3(D835Y) (Homo sapiens, UniProt P36888, D835Y)
ULK2 = ULK2 (Homo sapiens, UniProt Q8IYT8)
CAMK1 = CAMK1 (Homo sapiens, UniProt Q14012)
Sequence of CAMK1 (Q14012 whole entry): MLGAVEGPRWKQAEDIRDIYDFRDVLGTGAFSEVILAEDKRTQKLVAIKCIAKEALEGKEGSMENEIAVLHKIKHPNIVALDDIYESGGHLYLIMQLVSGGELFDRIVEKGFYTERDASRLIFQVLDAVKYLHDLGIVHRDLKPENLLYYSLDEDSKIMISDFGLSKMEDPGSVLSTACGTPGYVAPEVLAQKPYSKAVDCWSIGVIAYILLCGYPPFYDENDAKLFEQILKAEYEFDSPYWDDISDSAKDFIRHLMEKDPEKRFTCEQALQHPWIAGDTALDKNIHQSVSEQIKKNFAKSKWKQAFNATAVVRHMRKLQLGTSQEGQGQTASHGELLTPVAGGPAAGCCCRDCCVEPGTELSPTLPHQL

p38-alpha = molecular target: T4, p38-alpha (Homo sapiens, UniProt Q16539)
T4 construct: gene MAPK14

FLT4 = FLT4 (Homo sapiens, UniProt P35916)
PIM3 = PIM3 (Homo sapiens, UniProt Q86V86)
FES = FES (Homo sapiens, UniProt P07332)
FER = FER (Homo sapiens, UniProt P16591)
GSK3A = GSK3A (Homo sapiens, UniProt P49840)
Sequence of GSK3A (P49840 whole entry): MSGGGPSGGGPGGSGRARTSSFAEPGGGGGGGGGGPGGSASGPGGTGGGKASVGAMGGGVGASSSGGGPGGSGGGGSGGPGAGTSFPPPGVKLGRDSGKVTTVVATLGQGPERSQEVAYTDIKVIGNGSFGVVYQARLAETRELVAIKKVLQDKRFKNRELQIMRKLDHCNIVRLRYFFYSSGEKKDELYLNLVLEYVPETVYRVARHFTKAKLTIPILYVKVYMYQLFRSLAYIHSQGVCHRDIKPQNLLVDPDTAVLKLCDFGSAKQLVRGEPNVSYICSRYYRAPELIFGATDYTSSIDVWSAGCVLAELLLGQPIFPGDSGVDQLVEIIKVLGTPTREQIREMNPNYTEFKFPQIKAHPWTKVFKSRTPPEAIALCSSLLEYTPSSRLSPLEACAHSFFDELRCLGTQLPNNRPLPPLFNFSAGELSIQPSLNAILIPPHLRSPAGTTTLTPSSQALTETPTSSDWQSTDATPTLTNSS

ZAK = molecular target: T5, ZAK (Homo sapiens, UniProt Q9NYL2)
T5 construct: gene MAP3K20

PIP5K2C = molecular target: T6, PIP5K2C (Homo sapiens, UniProt Q8TBX8)
T6 construct: gene PIP4K2C

PIM1 = PIM1 (Homo sapiens, UniProt P11309)
MARK2 = MARK2 (Homo sapiens, UniProt Q7KZI7)
Sequence of MARK2 (Q7KZI7 whole entry): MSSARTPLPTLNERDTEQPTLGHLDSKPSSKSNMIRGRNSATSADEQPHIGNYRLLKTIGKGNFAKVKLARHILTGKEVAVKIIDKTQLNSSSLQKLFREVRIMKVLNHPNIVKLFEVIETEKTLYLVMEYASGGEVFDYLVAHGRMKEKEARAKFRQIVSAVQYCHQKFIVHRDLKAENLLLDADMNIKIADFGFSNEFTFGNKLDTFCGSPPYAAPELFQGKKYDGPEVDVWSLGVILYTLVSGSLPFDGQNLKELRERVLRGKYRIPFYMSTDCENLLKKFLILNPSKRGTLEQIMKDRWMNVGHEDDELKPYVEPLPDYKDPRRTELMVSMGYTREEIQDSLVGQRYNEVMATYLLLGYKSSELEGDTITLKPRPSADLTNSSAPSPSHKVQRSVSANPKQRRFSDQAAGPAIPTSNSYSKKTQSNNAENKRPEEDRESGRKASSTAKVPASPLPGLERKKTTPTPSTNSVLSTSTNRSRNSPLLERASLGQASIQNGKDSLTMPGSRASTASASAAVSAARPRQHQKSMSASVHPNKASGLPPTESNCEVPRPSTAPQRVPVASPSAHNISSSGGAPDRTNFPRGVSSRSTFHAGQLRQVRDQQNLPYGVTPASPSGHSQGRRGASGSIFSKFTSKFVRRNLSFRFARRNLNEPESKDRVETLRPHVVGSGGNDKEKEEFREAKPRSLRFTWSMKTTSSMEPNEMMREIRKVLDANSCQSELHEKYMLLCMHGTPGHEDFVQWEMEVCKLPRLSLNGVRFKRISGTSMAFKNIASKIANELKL

[1] = molecular target: T7, ABL1(E255K)-phosphorylated (Homo sapiens, UniProt P00519, E255K)
T7 construct: phosphorylated
T7 sequence (P00519 whole entry E255K): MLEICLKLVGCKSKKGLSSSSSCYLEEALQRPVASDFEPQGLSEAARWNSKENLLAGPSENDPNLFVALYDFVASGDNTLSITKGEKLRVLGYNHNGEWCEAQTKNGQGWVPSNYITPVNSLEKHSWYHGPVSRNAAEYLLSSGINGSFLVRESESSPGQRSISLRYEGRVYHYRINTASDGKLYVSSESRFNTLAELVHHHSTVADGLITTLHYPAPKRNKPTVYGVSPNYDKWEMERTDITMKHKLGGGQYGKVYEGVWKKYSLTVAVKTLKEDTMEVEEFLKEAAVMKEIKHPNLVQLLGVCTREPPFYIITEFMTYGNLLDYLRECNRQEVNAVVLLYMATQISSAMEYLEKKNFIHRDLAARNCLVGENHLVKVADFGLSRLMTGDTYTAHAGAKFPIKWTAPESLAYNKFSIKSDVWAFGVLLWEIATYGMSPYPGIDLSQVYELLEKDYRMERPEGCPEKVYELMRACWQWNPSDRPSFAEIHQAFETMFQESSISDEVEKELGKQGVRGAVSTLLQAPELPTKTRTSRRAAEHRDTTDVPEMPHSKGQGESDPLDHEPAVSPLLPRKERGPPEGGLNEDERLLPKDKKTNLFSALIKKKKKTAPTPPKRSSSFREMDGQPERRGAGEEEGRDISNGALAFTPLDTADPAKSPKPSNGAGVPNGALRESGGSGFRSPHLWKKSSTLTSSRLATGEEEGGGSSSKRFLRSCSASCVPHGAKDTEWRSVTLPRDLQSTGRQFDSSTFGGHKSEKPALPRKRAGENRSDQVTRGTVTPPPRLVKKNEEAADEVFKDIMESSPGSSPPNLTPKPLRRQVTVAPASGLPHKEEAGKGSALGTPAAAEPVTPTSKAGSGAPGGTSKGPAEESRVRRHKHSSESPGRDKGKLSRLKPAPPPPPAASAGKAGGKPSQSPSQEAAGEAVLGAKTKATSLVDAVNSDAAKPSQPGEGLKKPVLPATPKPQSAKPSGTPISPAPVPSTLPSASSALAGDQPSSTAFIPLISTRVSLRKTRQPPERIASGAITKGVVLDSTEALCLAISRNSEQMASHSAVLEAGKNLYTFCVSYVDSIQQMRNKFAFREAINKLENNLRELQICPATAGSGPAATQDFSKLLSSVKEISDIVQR

IRAK4 = IRAK4 (Homo sapiens, UniProt Q9NWZ3)
PRKCD = PRKCD (Homo sapiens, UniProt Q05655)
Sequence of PRKCD (Q05655 whole entry): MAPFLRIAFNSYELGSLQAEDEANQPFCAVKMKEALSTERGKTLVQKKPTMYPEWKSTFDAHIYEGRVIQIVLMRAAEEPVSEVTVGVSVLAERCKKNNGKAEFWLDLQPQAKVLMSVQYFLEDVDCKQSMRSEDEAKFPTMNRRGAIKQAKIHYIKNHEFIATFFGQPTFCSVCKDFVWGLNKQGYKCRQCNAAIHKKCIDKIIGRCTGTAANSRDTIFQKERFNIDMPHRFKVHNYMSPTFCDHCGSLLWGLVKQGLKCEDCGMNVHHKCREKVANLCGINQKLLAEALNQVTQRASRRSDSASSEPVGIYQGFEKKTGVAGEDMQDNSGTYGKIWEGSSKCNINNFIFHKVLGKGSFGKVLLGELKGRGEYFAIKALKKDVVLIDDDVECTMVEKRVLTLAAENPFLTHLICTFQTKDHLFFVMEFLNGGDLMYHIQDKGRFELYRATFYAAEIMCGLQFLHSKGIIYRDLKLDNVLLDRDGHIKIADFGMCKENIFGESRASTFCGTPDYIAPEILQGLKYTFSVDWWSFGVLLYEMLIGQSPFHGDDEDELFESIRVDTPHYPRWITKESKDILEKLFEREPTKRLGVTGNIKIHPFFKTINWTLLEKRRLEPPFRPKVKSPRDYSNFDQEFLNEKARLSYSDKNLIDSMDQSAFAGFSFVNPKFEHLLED

AAK1 = AAK1 (Homo sapiens, UniProt Q2M2I8)
MAP4K2 = MAP4K2 (Homo sapiens, UniProt Q12851)
HIPK4 = HIPK4 (Homo sapiens, UniProt Q8NE63)
Sequence of HIPK4 (Q8NE63 whole entry): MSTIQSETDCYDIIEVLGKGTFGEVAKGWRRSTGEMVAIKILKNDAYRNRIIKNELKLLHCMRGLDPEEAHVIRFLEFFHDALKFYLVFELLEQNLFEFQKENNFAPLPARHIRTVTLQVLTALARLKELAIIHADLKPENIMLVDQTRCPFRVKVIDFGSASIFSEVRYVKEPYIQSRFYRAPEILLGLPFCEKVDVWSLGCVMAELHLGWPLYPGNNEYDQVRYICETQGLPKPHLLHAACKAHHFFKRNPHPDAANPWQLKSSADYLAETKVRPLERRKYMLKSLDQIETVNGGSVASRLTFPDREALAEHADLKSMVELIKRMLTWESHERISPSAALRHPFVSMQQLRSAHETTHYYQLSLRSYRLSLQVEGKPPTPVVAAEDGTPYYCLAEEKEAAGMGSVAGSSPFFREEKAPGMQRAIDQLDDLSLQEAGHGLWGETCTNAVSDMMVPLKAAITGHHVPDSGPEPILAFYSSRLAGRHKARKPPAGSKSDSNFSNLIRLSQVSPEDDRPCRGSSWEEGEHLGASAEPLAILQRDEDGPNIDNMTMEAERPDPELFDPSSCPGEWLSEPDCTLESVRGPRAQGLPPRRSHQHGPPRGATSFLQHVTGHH

T1 sequence (Q9UBF8 whole entry): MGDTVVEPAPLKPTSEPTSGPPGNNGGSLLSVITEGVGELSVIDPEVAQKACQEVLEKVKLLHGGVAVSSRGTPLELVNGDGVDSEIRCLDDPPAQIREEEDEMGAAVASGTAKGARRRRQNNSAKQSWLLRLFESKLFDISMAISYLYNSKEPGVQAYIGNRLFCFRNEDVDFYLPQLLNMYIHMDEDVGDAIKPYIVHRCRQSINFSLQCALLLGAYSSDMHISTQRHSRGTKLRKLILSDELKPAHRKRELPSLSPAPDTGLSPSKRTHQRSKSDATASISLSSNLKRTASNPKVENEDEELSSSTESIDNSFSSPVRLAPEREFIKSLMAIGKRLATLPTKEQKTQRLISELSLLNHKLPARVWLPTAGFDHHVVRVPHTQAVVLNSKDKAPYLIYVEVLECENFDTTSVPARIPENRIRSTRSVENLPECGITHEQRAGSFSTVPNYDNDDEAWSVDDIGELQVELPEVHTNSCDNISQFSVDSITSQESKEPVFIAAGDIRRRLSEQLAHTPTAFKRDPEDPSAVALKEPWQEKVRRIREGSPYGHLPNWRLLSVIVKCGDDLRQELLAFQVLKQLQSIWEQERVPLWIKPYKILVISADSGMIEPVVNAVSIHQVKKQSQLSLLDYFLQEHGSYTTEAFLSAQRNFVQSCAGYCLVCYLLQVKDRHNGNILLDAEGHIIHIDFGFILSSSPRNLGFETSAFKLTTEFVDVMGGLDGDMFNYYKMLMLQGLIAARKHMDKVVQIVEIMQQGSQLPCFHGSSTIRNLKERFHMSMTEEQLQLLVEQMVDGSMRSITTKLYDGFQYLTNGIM

| SMILES | remaining binding at 10 µM (PIK4CB) [%] | remaining binding at 10 µM (OSR1) [%] | remaining binding at 10 µM (DMPK2) [%] | remaining binding at 10 µM (MKNK2) [%] | remaining binding at 10 µM (FLT3(D835Y)) [%] | remaining binding at 10 µM (ULK2) [%] | remaining binding at 10 µM (CAMK1) [%] | remaining binding at 10 µM (p38-alpha) [%] | remaining binding at 10 µM (FLT4) [%] | remaining binding at 10 µM (PIM3) [%] | remaining binding at 10 µM (FES) [%] | remaining binding at 10 µM (FER) [%] | remaining binding at 10 µM (GSK3A) [%] | remaining binding at 10 µM (ZAK) [%] | remaining binding at 10 µM (PIP5K2C) [%] | remaining binding at 10 µM (PIM1) [%] | remaining binding at 10 µM (MARK2) [%] | remaining binding at 10 µM [1] [%] | remaining binding at 10 µM (IRAK4) [%] | remaining binding at 10 µM (PRKCD) [%] | also measured |
| --- | --- | --- | --- | --- | --- | --- | --- | --- | --- | --- | --- | --- | --- | --- | --- | --- | --- | --- | --- | --- | --- |
| COc1ccc(-c2cnccc2-c2cnc(NC(=O)C(C)C)s2)c(C(F)(F)F)c1 [CRT0105446, N-{5-[3-(4-Methoxy-2-trifluoromethyl-phenyl)-pyridin-4-yl]-hiazol-2-yl}-isobutyramide] | 80 | 100 | 93 | 68 | 20 | 100 | 62 | 93 | 61 | 95 | 87 | 100 | 56 | 100 | 3 | 96 | 63 | 78 | 100 | 90 | remaining binding at 10 µM (AAK1): 78%; remaining binding at 10 µM (MAP4K2): 100%; remaining binding at 10 µM (HIPK4): 75% |
| Cc1ccc(-c2cnccc2-c2cnc(Nc3ccc(O)cc3)s2)c(Cl)c1 [CRT0105950, 4-{5-[3-(2-Chloro-4-methyl-phenyl)-pyridin-4-yl]-thiazol-2-ylamino}-phenol] | 2.9 | 84 | 71 | 1.8 | 1.2 | 20 | 9.4 | 87 | 26 | 72 | 93 | 57 | 32 | 9 | 2.3 | 76 | 28 | 79 | 80 | 76 | remaining binding at 10 µM (AAK1): 51%; remaining binding at 10 µM (MAP4K2): 81%; remaining binding at 10 µM (HIPK4): 16% |
